Where two headings read alike, the source gives them in different places.
Key:
[1] = aqueous solution, cited from earlier work
[2] = Stability of epinephrine formulations after 1 month storage at 50° C. (HPLC potency, degradants, pH, appearance, O.D.); type: physicochemical
Method: Selected samples were also tested for drug chirality. The potency and chirality of drug were analyzed using HPLC methods. The degree of coloration was visually inspected and analytically measured their optical densities using a UV/VIS spectrophotometer at the maximum absorption wavelength (λmax) at 485 nm.

[3] = 1:10 cysteine-to-drug complex and commercial formulation
[4] = non-complex, acetylcysteine levels
[5] = non-complex, mixed antioxidants
[6] = non-complex, thioglycerol levels
[7] = pediatric formulations (1:2000)

| SMILES | association constant (K) of the inclusion complex with SBEβCD ([1]; pH 3.5) [M⁻¹] | association constant (K) of the inclusion complex with SBEβCD ([1]; pH 5.5) [M⁻¹] | Appearance ([2]; 1:1 cysteine-to-drug) | O.D. (Absorbance at λmax = 485 nm) ([2]; 1:1 cysteine-to-drug) | Appearance [2, 3] | O.D. (Absorbance at λmax = 485 nm) [2, 3] | Appearance ([2]; 2:1 cysteine-to-drug) | O.D. (Absorbance at λmax = 485 nm) ([2]; 2:1 cysteine-to-drug) | Appearance ([2]; 5:1 cysteine-to-drug) | O.D. (Absorbance at λmax = 485 nm) ([2]; 5:1 cysteine-to-drug) | Appearance [2, 4] | O.D. (Absorbance at λmax = 485 nm) [2, 4] | Appearance ([2]; non-complex, cysteine levels) | O.D. (Absorbance at λmax = 485 nm) ([2]; non-complex, cysteine levels) | Appearance [2, 5] | O.D. (Absorbance at λmax = 485 nm) [2, 5] | Appearance [2, 6] | O.D. (Absorbance at λmax = 485 nm) [2, 6] | Appearance [2, 7] | O.D. (Absorbance at λmax = 485 nm) [2, 7] |
| --- | --- | --- | --- | --- | --- | --- | --- | --- | --- | --- | --- | --- | --- | --- | --- | --- | --- | --- | --- | --- |
| CNCC(O)c1ccc(O)c(O)c1 (single isomer, unassigned; (-)) [epinephrine, (−)-3,4-Dihydroxy-α-[(methylamino)methyl]benzyl alcohol] | 488 | 111 |  |  |  |  |  |  |  |  |  |  |  |  |  |  |  |  |  |  |
| II [0.0005N Iodine] |  |  | Slightly brownish | 0.1206 | Slightly brownish | 0.1354 | Slightly brownish | 0.1206 | Slightly brownish | 0.1290 | Slightly brownish | 0.1354 | Slightly brownish | 0.1354 | Slightly brownish | 0.1354 | Slightly brownish | 0.1354 | Slightly brownish | 0.1354 |

Source: US11925608B2 (YS PHARMTECH, priority 2017, dated 2024)
